Square brackets hold non-standard residues; d marks the D form. Ends that are not written are not given here. Oic = O=C(O)[C@@H]1C[C@@H]2CCCC[C@@H]2N1; Tic = O=C(O)[C@@H]1Cc2ccccc2CN1
Biological target: T1, mouse GzmA (mGzmA) (Mus musculus, UniProt P11032)
T1 construct: CSB-EP010081MO for active, mature form; purchased Cusabio CSB-EP010081MO
T1 sequence (P11032 29-260): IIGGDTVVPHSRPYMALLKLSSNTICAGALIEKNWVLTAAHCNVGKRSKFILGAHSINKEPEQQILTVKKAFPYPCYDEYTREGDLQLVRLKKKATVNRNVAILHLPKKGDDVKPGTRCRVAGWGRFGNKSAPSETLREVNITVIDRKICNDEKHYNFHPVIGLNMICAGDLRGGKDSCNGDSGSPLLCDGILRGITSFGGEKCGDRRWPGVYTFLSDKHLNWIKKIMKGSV
Test: In-gel fluorescence labeling of mGzmA
Type: biochemical
Conditions: mGzmA 1 μM, 24 h, 37 °C; for Labeling of mGzmA (in-gel Cy5 fluorescence): probe 200 nM or 1 μM
Procedure: Figure 3 GzmA ABPs covalently and competitively label active human and mouse GzmA. […] Recombinant hGzmA (100 nM) was incubated with varying concentrations of each ABP at 37 °C. B) Competitive labeling of hGzmA. Recombinant hGzmA (100 nM) was preincubated with covalent inhibitors 1 or 2 (5 μM) for 2 h, followed by labeling with ABPs 3 –5 (50 nM) for 2 h at 37 °C. Note: Pro‐form of hGzmA (the first lane) is not effectively stained by SYPRO‐Ruby. C) Structure of qABP 6. D) Quenched natures of 5 and 6. […] F) Labeling of mGzmA (1 μM) with 5 and 6 (1 μM, 24 h, 37 °C). Protein samples were analyzed by SDS‐PAGE and in‐gel fluorescence scanning for Cy5 signal and SYPRO Ruby staining.
Sulfo-Cy5 N N P O 1 µM 100 nM
7 HN NH2 In-gel fluorescence: […]
mGzmA In-gel fluorescence: mGzmA In-gel fluorescence:
Supplementary Figure 1. (A) Chemical structure of qABP 7. (B) Labeling of mGzmA (1 µM, 24 h, 37 °C) and hGzmA (100 nM, 2 h, 37 °C) by 1 µM or 100 nM of 5, 6, and 7, respectively. (C) Labeling of mGzmA (1 µM, 24 h, 37 °C) by 200 nM of 5, 6, and 7. […] Protein samples were analyzed by SDS-PAGE and in-gel fluorescence scanning for Cy5 signal. […]
Briefly, hGzmA (50 nM) was incubated with either inhibitor 1 or 2 (200 nM), and GzmA fluorogenic substrate […] (100 µM) in 50 mM Tris, 150 mM NaCl, 0.01% Triton X-100 (pH 8) for 15 hr at 37 °C. Recorded fluorescence at Ex/Em: 380/460 nm for residual GzmA […]
Cat. No. CRL-2570) and 4T1 (ATCC Cat. No. CRL-2539) cells were cultured in RPMI supplemented with 10% fetal bovine serum (FBS), 1% penicillin/streptomycin (PS), and 2 mM L-glutamine, while HEK293T and MDA-MB-231 cells (ATCC Cat. No. HTB-26) were cultured in DMEM supplemented likewise as described above. […] The supernatant was collected, and protein concentration was measured using a Pierce BCA protein assay. […]
C. In-gel fluorescence imaging […]
Conditions for probe/inhibitor treatment for in-gel fluorescence analysis: Inhibitors and probes were incubated with active (or pro-) GzmA followed by treatment with 4X SDS reducing sample buffer. […]

GFFR [compound 7]
Labeling of mGzmA (in-gel Cy5 fluorescence): lower labeling efficiency for both hGzmA and mGzmA compared with probes 5 and 6

[Tic]G[Oic]R [compound 6]
Labeling of mGzmA (in-gel Cy5 fluorescence): efficiently (and slightly more strongly than 5) labeled
Concentration dependence of labeling of mGzmA (probe 1, 0.5, 0.2 µM, in-gel fluorescence): concentration‐dependent labeling of mGzmA

Reference: paper PMC12703428, “Development of Granzyme A Turn‐ON Fluorescent Activity‐Based Probes” (Chembiochem, 2025)
